Data published in patent US10308639B2, “Phosphatidylinositol 3-kinase inhibitors” (Gilead Sciences, Inc., priority 2014, dated 2019).
Like-named read-outs stand apart in the source and are kept apart here.

What was measured:
Type in all cases: biochemical
[1] = target: T1, PI3Kγ (Homo sapiens, UniProt P48736); experiment: TR-FRET enzymatic activity assay, PI3Kγ; conditions: read-out: PI3Kγ IC50
T1 construct: made in house
Method: The compounds of formula (I) were characterized for their enzymatic activity against the PI3K isoforms. The activities were measured using a time-resolved fluorescence resonance energy transfer (TR-FRET) assay.

[2] = target: T2, PI3Kδ (Homo sapiens, UniProt O00329); experiment: TR-FRET enzymatic activity assay, PI3Kδ
T2 construct: made in house
T2 sequence (O00329 whole entry): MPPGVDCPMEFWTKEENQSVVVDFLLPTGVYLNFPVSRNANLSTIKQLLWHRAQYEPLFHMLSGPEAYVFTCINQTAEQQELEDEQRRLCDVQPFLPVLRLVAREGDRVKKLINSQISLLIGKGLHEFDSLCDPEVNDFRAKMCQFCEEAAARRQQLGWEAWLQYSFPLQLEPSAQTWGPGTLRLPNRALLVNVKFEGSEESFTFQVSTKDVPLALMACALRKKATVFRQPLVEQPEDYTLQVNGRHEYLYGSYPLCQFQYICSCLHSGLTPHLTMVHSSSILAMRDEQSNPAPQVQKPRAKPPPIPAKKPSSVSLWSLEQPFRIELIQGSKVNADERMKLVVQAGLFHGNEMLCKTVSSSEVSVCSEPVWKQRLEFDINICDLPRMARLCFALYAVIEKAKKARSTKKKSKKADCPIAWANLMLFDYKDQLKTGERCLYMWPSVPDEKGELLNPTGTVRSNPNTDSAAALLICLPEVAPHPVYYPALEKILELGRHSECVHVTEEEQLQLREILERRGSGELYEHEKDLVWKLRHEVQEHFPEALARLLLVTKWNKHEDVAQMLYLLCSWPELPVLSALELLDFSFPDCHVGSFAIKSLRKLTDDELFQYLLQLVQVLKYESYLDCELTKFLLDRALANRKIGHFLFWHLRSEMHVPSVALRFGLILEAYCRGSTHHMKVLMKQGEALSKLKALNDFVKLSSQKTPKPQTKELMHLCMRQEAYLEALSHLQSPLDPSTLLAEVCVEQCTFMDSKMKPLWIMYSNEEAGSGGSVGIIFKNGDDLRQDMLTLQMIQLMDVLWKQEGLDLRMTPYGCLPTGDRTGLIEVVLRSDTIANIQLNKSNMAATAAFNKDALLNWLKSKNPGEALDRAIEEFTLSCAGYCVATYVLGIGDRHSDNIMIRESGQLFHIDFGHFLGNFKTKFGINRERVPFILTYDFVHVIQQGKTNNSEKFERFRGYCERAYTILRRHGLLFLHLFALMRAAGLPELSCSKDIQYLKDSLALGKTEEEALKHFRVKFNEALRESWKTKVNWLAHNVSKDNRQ
T2 sequence (P27986 whole entry partner): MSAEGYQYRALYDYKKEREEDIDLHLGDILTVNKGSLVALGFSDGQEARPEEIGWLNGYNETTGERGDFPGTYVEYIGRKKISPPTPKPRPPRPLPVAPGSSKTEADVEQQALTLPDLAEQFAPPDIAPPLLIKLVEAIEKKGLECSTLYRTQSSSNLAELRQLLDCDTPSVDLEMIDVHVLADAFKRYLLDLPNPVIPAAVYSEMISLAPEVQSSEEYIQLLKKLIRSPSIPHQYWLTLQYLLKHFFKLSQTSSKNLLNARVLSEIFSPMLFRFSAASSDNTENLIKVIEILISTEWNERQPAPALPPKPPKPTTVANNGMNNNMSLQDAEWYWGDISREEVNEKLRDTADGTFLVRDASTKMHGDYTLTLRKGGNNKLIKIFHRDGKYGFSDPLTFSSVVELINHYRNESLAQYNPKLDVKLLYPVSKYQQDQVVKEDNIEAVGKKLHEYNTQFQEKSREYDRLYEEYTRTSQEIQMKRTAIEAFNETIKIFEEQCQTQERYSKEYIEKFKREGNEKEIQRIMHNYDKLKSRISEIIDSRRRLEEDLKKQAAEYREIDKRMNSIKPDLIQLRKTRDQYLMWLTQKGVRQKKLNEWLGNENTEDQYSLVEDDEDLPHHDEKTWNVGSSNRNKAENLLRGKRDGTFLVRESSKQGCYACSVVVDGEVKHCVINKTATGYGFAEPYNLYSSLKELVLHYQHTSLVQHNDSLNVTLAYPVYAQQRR

[3] = target: T3, PI3Kβ (Homo sapiens, UniProt P42338); experiment: TR-FRET enzymatic activity assay, PI3Kβ
T3 construct: made in house
T3 sequence (P42338 whole entry): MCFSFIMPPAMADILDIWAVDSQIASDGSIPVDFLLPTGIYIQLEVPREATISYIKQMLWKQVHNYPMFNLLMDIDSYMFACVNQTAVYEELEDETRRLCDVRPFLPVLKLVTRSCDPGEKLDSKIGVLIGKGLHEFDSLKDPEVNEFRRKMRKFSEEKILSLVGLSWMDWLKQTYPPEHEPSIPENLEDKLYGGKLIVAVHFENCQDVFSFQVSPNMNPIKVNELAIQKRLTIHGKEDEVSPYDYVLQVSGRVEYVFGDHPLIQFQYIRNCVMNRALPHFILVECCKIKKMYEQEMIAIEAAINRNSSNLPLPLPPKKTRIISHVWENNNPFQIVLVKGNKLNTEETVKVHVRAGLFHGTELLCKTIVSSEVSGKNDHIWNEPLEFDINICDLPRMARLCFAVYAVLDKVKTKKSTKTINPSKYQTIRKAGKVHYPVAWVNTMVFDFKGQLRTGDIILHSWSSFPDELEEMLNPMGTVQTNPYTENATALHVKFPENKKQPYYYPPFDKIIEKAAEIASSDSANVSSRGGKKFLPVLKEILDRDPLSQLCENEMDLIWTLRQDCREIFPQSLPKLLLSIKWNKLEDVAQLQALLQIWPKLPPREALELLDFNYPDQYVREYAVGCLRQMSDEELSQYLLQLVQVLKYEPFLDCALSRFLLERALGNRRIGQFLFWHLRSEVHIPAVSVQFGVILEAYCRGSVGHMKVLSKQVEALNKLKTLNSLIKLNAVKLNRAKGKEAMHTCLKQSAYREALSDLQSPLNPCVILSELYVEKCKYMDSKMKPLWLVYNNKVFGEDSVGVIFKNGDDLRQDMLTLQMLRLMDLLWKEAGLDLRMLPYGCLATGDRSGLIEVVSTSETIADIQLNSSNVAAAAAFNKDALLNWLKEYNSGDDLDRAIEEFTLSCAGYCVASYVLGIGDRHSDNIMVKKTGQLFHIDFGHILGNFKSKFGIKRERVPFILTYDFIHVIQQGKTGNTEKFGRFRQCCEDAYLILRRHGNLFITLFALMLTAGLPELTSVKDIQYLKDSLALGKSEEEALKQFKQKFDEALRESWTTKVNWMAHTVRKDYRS
T3 sequence (P27986 whole entry partner): as the sequence (P27986 whole entry partner) above

[4] = Table 2, TR-FRET, 2x Km ATP, 30 minutes at 25° C.

T1 sequence (P48736 whole entry): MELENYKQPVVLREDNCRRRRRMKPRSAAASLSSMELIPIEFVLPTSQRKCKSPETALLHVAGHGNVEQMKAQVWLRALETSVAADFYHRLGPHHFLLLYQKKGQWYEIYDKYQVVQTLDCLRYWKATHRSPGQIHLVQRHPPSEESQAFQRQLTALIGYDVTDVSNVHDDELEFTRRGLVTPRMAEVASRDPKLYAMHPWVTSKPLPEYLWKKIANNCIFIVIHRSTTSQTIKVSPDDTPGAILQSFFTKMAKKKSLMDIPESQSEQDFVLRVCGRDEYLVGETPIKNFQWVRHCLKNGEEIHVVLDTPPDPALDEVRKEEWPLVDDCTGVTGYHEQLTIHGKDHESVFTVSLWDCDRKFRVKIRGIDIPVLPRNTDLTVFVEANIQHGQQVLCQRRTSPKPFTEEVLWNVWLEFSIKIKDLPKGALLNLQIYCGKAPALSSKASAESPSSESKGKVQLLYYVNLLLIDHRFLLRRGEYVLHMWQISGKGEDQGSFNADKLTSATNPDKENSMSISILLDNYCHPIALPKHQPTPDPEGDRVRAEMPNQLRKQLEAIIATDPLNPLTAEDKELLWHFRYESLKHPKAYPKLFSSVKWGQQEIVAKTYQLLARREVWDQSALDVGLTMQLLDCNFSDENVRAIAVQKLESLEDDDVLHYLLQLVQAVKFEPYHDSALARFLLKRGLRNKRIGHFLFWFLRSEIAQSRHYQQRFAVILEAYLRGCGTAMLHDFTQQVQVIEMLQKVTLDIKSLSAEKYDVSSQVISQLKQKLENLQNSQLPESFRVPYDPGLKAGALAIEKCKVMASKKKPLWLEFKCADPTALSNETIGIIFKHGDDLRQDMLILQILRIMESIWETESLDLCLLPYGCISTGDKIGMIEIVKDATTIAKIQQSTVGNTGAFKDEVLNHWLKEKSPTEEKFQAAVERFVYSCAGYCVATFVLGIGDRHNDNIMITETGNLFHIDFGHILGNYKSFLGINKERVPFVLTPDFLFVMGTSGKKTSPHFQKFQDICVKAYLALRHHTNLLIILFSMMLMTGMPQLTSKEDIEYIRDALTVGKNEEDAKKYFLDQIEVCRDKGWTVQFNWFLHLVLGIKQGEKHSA

IC50 ([1]; Table 2a, same assay) [nM] | IC50 ([2]; Table 2a, same assay) [nM] | IC50 ([3]; Table 2a, same assay) [nM] | IC50 [2, 4] [nM] | IC50 [3, 4] [nM] | Compound | also measured
740 | 2 | 3 |  |  | CCC[C@H](Nc1nc(N)nc(N)c1C#N)c1nc2cccc(Cl)c2c(=O)n1-c1c[nH]cn1 [Compound 283, (S)-2,4-diamino-6-((1-(5-chloro-3-(1H-imidazol-4-yl)-4-oxo-3,4-dihydroquinazolin-2-yl)butyl)amino)pyrimidine-5-carbonitrile] | 
680 | 8 | 16 |  |  | C[C@H](Nc1nc(N)nc(C(F)F)c1C#N)c1nc2cccc(Cl)c2c(=O)n1-c1cc[nH]n1 [Compound 166, (S)-2-amino-4-((1-(5-chloro-4-oxo-3-(1H-pyrazol-3-yl)-3,4-dihydroquinazolin-2-yl)ethyl)amino)-6-(difluoromethyl)pyrimidine-5-carbonitrile] | 
 |  |  | 4 | 15 | CC[C@H](Nc1ncnc2ccc(Cl)nc12)c1nc2c(Cl)ccc(Cl)c2c(=O)n1-c1cc[nH]n1 [Compound 45, (S)-5,8-dichloro-2-(1-((6-chloropyrido[3,2-d]pyrimidin-4-yl)amino)propyl)-3-(1H-pyrazol-3-yl)quinazolin-4(3H)-one] | IC50 [1]: > 10000 nM
> 10000 | 830 | 580 |  |  | C[C@H](Nc1nc(C(F)F)nc(N)c1C#N)c1nc2c(Cl)cc(F)cc2c(=O)n1-c1cc[nH]n1 [Compound 198, (S)-4-amino-6-((1-(8-chloro-6-fluoro-4-oxo-3-(1H-pyrazol-3-yl)-3,4-dihydroquinazolin-2-yl)ethyl)amino)-2-(difluoromethyl)pyrimidine-5-carbonitrile] | 
 |  |  | 9 | 18 | CC[C@H](Nc1nc(N)nc(N)c1Cl)c1nc2cccc(Cl)c2c(=O)n1-c1cc[nH]n1 [Compound 65, (S)-5-chloro-2-(1-((2,6-diamino-5-chloropyrimidin-4-yl)amino)propyl)-3-(1H-pyrazol-3-yl)quinazolin-4(3H)-one] | IC50 [1, 4]: 4200 nM
> 10000 | 42 | 99 |  |  | Nc1nc(N)c(Cl)c(N[C@H](c2nc3cc(F)cc(Cl)c3c(=O)n2-c2cc[nH]n2)C2CC2)n1 [Compound 240, (S)-5-chloro-2-(cyclopropyl((2,6-diamino-5-chloropyrimidin-4-yl)amino)methyl)-7-fluoro-3-(1H-pyrazol-3-yl)quinazolin-4(3H)-one] | 
 |  |  | 1 | 2 | N#Cc1c(N)nc(N)nc1N[C@H](c1nc2ccc(F)cc2c(=O)n1-c1cc[nH]n1)C1CC1 [Compound 113, (S)-2,4-diamino-6-((cyclopropyl(6-fluoro-4-oxo-3-(1H-pyrazol-3-yl)-3,4-dihydroquinazolin-2-yl)methyl)amino)pyrimidine-5-carbonitrile] | IC50 [1, 4]: 980 nM
 |  |  | 16 | 17 | CC[C@H](Nc1nc(N)nc(N)c1C#N)c1nc2cccc(C#N)c2c(=O)n1-c1cc[nH]n1 [Compound 97, (S)-2-(1-((2,6-diamino-5-cyanopyrimidin-4-yl)amino)propyl)-4-oxo-3-(1H-pyrazol-3-yl)-3,4-dihydroquinazoline-5-carbonitrile] | IC50 [1, 4]: 3700 nM
2700 | 6 | 10 |  |  | Nc1nc(N)c(Cl)c(N[C@H](c2nc3cccc(C(F)F)c3c(=O)n2-c2cc[nH]n2)C2CC2)n1 [Compound 215, (S)-2-(cyclopropyl((2,6-diamino-5-chloropyrimidin-4-yl)amino)methyl)-5-(difluoromethyl)-3-(1H-pyrazol-3-yl)quinazolin-4(3H)-one] | 
 |  |  | 44 | 120 | Nc1nc(N)c(Cl)c(N[C@H](c2nc3c(F)ccc(F)c3c(=O)n2-c2cc[nH]n2)C2CC2)n1 [Compound 11, (S)-2-(cyclopropyl((2,6-diamino-5-chloropyrimidin-4-yl)amino)methyl)-5,8-difluoro-3-(1H-pyrazol-3-yl)quinazolin-4(3H)-one] | IC50 [1]: > 10000 nM
4400 | 6 | 8 |  |  | C[C@H](Nc1nc(N)nc(N)c1Cl)c1nc2cccc(C(F)(F)F)c2c(=O)n1-c1cc[nH]n1 [Compound 208, (S)-2-(1-((2,6-diamino-5-chloropyrimidin-4-yl)amino)ethyl)-3-(1H-pyrazol-3-yl)-5-(trifluoromethyl)quinazolin-4(3H)-one] | 
1500 | 9 | 8 |  |  | N#Cc1c(N[C@H](c2nc3c(Cl)cc(F)cc3c(=O)n2-c2cn[nH]c2)C2CC2)nc(N)nc1C(F)F [Compound 184, (S)-2-amino-4-(((8-chloro-6-fluoro-4-oxo 3-(1H-pyrazol-4-yl)-3,4-dihydroquinazolin-2-yl)(cyclopropyl)methyl)amino)-6-(difluoromethyl)pyrimidine-5-carbonitrile] | 
 |  |  | 9 | 25 | Nc1nc(N)c(Cl)c(N[C@@H](c2ccccc2)c2nc3cccc(Cl)c3c(=O)n2-c2cc[nH]n2)n1 [Compound 109, (S)-5-chloro-2-(((2,6-diamino-5-chloropyrimidin-4-yl)amino)(phenyl)methyl)-3-(1H-pyrazol-3-yl)quinazolin-4(3h)-one] | IC50 [1, 4]: 4900 nM
 |  |  | 110 | 37 | C[C@H](NC(=O)c1c(N)nn2cccnc12)c1nc2cccc(Cl)c2c(=O)n1-c1cc[nH]n1 [Compound 117, (S)-2-amino-N-(1-(5-chloro-4-oxo-3-(1H-pyrazol-3-yl)-3,4-dihydroquinazolin-2-yl)ethyl)pyrazolo[1,5-a]pyrimidine-3-carboxamide] | IC50 [1, 4]: 160 nM
 |  |  | 18 | 95 | CC[C@H](Nc1ncnc2scnc12)c1nc2cccc(C#N)c2c(=O)n1-c1cc[nH]n1 [Compound 73, (S)-4-oxo-3-(1H-pyrazol-3-yl)-2-(1-(thiazolo[5,4-d]pyrimidin-7-ylamino)propyl)-3,4-dihydroquinazoline-5-carbonitrile] | IC50 [1]: > 10000 nM
14 | 0.5 | 62 |  |  | C[C@H](Nc1ncnc2scc(C#N)c12)c1nc2cccc(Cl)c2c(=O)n1-c1cc[nH]n1 [Compound 202, (S)-4-((1-(5-chloro-4-oxo-3-(1H-pyrazol-3-yl)-3,4-dihydroquinazolin-2-yl)ethyl)amino)thieno[2,3-d]pyrimidine-5-carbonitrile] | 
2000 | 18 | 26 |  |  | C[C@H](Nc1nc(N)nc(C(F)F)c1C#N)c1nc2cccc(C(F)F)c2c(=O)n1-c1cc[nH]n1 [Compound 176, (S)-2-amino-4-(difluoromethyl)-6-((1-(5-(difluoromethyl)-4-oxo-3-(1H-pyrazol-3-yl)-3,4-dihydroquinazolin-2-yl)ethyl)amino)pyrimidine-5-carbonitrile] | 
 | 220 | 1600 |  |  | Cc1c[nH]nc1-n1c([C@@H](NC2=NC(N)=NC3=NN=C(Br)C32)C2CC2)nc2cccc(Cl)c2c1=O (stereo partly shown) [Compound 242, 2-((1 S)-((6-amino-3-bromo-3aH-pyrazolo[3,4-d]pyrimidin-4-yl)amino)(cyclopropyl)methyl)-5-chloro-3-(4-methyl-1H-pyrazol-3-yl)quinazolin-4(3H)-one] | 
 |  |  |  |  | C[C@H](Nc1nc(N)nc(N)c1C#N)c1nc2cccc(Cl)c2c(=O)n1-c1ccccc1 [Compound X, (S)-2,4-diamino-6-((1-(5-chloro-4-oxo-3-phenyl-3,4-dihydroquinazolin-2-yl)ethyl)amino)pyrimidine-5-carbonitrile, reference compound] | PI3Kγ/PI3Kβ ratio ([3]; ratio of IC50 values): 0.6
 | 25 | 94 |  |  | CC(C)[C@H](Nc1nc(N)nc(N)c1Cl)c1nc2cccc(Cl)c2c(=O)n1-c1cc[nH]n1 [Compound 146, (S)-5-chloro-2-(1-((2,6-diamino-5-chloropyrimidin-4-yl)amino)-2-methylpropyl)-3-(1H-pyrazol-3-yl)quinazolin-4(3H)-one] | 
 |  |  | 7 | 84 | CC(C)Cc1cc(-n2c([C@H](C)Nc3ncnc(N)c3C#N)nc3cccc(Cl)c3c2=O)n[nH]1 [Compound 4, (S)-4-amino-6-((1-(5-chloro-3-(5-isobutyl-1H-pyrazol-3-yl)-4-oxo-3,4-dihydroquinazolin-2-yl)ethyl)amino)pyrimidine-5-carbonitrile] | 
 |  |  |  |  | C[C@H](Nc1nc(N)nc(N)c1C#N)c1nc2cccc(Cl)c2c(=O)n1-c1ccccc1 [(S)-2,4-diamino-6-((1-(5-chloro-4-oxo-3-phenyl-3,4-dihydroquinazolin-2-yl)ethyl)amino)pyrimidine-5-carbonitrile] | PI3Kγ/PI3Kβ IC50 ratio ([3]; ratio of IC50 values, text b271): less than 1 fold
 | 21 | 49 |  |  | Nc1nc(N)c(Cl)c(N[C@H](c2nc3cccc(Cl)c3c(=O)n2-c2cc[nH]n2)C2CCC2)n1 [Compound 127, (S)-5-chloro-2-(cyclobutyl((2,6-diamino-5-chloropyrimidin-4-yl)amino)methyl)-3-(1H-pyrazol-3-yl)quinazolin-4(3H)-one] | 

Compound | IC50 ([1]; Table 2a, same assay) [nM] | IC50 ([2]; Table 2a, same assay) [nM] | IC50 ([3]; Table 2a, same assay) [nM] | IC50 [2, 4] [nM] | IC50 [3, 4] [nM] | also measured
C[C@H](Nc1nc(N)nc(N)c1Cl)c1nc2cc(F)cc(Cl)c2c(=O)n1-c1cc[nH]n1 [Compound 238, (S)-5-chloro-2-(1-((2,6-diamino-5-chloropyrimidin-4-yl)amino)ethyl)-7-fluoro-3-(1H-pyrazol-3-yl)quinazolin-4(3H)-one] | > 10000 | 15 | 21 |  |  | 
C[C@H](Nc1nc(N)nc(N)c1Cl)c1nc2cccc(Cl)c2c(=O)n1-c1cc(F)[nH]n1 [Compound 155, (S)-5-chloro-2-(1-((2,6-diamino-5-chloropyrimidin-4-yl)amino)ethyl)-3-(5-fluoro-1H-pyrazol-3-yl)quinazolin-4(3H)-one] | 500 | 10 | 43 |  |  | 
C[C@H](Nc1nc(N)nc(N)c1Cl)c1nc2cccc(Cl)c2c(=O)n1-c1cc(N)[nH]n1 [Compound 199, (S)-3-(5-amino-1H-pyrazol-3-yl)-5-chloro-2-(1-((2,6-diamino-5-chloropyrimidin-4-yl)amino)ethyl)quinazolin-4(3H)-one] | 5400 | 16 | 7 |  |  | 
